Measured values taken from paper PMC11540889, “In Vitro Cytotoxicity of Fluorinated Quaternary Ammonium Salts in Colorectal Cancer Cells and In Silico Pharmacology” (Advances in Pharmacological and Pharmaceutical Sciences, 2024).
Where two headings read alike, the source gives them in different places.

Columns and labels:
[1] = system: SW948 (Dukes' Type C, Grade III, premetastatic colorectal adenocarcinoma); experiment: MTT cytotoxicity, SW948 cells; conditions: for CC50: SW948 cells, MTT, 48 h, mean ± SD; for Index of selectivity MCRT / SW948: IS = CC50 MCRT ÷ CC50 SW948; for Index of selectivity PBMC / SW948: IS = CC50 PBMC ÷ CC50 SW948
Method: (§1) The compounds were solubilized in dimethyl sulfoxide (DMSO, Fischer Chemical, NJ, USA) at 50,000 μg/mL and stored at −20°C until use. From the stock solution, six serial 1:2 double dilutions of each compound were prepared to start with concentrations of 100, 50, 25, 12.5, 6.25, and 3.125 μg/mL, respectively. 5-FU, one of the conventional drugs to treat CRC [34], was used as an antitumor compound control at concentrations ranging between 800 and 0.625 μM.
(§2) SW948 (Dukes' Type C, Grade III, premetastatic colorectal adenocarcinoma—CCL-237), SW48 (Dukes' Type C, Grade IV, noninvasive colorectal adenocarcinoma—CCL231), and SW620 (Dukes' Type C, Grade IV invasive colorectal adenocarcinoma—CCL227) (American Type Culture Collection Manassas, VA, USA) were maintained in standard conditions at 37°C, without a CO2 atmosphere. PBMCs and MCRT were used as nontumoral control cells. PBMCs were obtained by healthy donors, separated using Histopaque-1077 (Sigma-Aldrich) and cultured in RPMI-1640 medium (Sigma-Aldrich) supplemented with 10% SFB and 1% penicillin/streptomycin [46]. In turn, MCRT were obtained from healthy BALB/c mice; for this, mice were euthanized with CO2 after previous sedation, the colorectal tissue removed, cleaned up, and cut into 2 × 2 mm pieces, suspended in supplemented DMEM, and used immediately after collection. […] Moreover, the inclusion of PBMC also served to assess the systemic toxicity of FQAS.
(§3) The cytotoxic activity of synthesized FQASs and QASs was studied by measuring cell viability/mortality, determined with the MTT (3-(4,5-dimethylthiazol-2-yl)-2,5-diphenyl tetrazole bromide) method (VWR Chemicals and Reagents Avantor), upon exposure of each cell line to six serial dilutions of the different compounds independently. Unexposed cells were included as viability controls, and cells exposed to 5-FU were included as cytotoxicity controls. Briefly, cells were adjusted to 200,000 cells/mL in the corresponding supplemented culture medium, and 100 μL (20,000 cells/well) were dispensed into each 96-well cell culture plate (Nunc, Thermo Fisher Scientific). Twelve hours after seeding the monolayer, 100 μL dilution of each compound was added to each well; the plates containing CRC were incubated at 37°C in the absence of CO2, while plates with PBMCs and MCRT were incubated at 37°C and 5% CO2 atmosphere. For MCRT, each piece was placed into each well of a 96-well plate and exposed to each dilution of the FQASs and QASs. After 48 h of incubation, 30 μL/well of MTT (5 mg/mL) was added, and plates were left at 37°C for 3 h, protected from light. After this time, 100 μL/well of DMSO was added to solubilize the formazan crystals formed. Plates were read at 570 nm on a Varioskan plate reader (Thermo Fisher), and nonspecific absorbance was corrected by subtracting the optical densities (OD) of the blank solutions corresponding to the supplemented culture media (RPMI 1640, DMEM, or L-15 media) and 0.5% DMSO. Each concentration of the FQASs, QASs, and controls was evaluated in duplicate in three independent experiments.
(§4) The percentages of viability (equation (1)) and mortality (equation (2)) were calculated with the net OD:(1) % viability=OD treated cell÷nontreated cells×100, (2) % mortality=100−% viability.
(§5) The %mortality data for each compound concentration was recorded, and the median cytotoxic concentration (CC50), corresponding to the concentration at which 50% of cell death occurs, was calculated using GraphPad Prism 8 software (GraphPad, Software, Inc., La Jolla, CA, USA). […] Lastly, the index of selectivity (IS) was calculated by dividing the CC50 value obtained for control cells (MCRT and PBMCs) by the CC50 value obtained for each CRC cell phenotype using the formula: IS = CC50 (MCRT or PBMC) ÷ CC50 (SW948, SW48 or SW620).

[2] = system: SW48 (Dukes' Type C, Grade IV, noninvasive colorectal adenocarcinoma); experiment: MTT cytotoxicity, SW48 cells; conditions: for CC50: SW48 cells, MTT, 48 h, mean ± SD; for Index of selectivity MCRT / SW48: IS = CC50 MCRT ÷ CC50 SW48; for Index of selectivity PBMC / SW48: IS = CC50 PBMC ÷ CC50 SW48
Method: as §1, §2, §3, §4, §5

[3] = system: SW620 (Dukes' Type C, Grade IV invasive colorectal adenocarcinoma); experiment: MTT cytotoxicity, SW620 cells; conditions: for CC50: Homo sapiens; for Index of selectivity MCRT / SW620: IS = CC50 MCRT ÷ CC50 SW620; for Index of selectivity PBMC / SW620: IS = CC50 PBMC ÷ CC50 SW620
Method: as §1, §2, §3, §4, §5

[4] = Ex vivo MTT cytotoxicity, healthy murine colorectal tissue; format: cell-based, BALB/c mice; conditions: BALB/c, mouse, healthy murine colorectal tissue (MCRT) pieces, ex vivo, nontumoral control, MTT, 48 h, mean ± SD
Method: as §1, §2, §3, §4, §5

[5] = MTT cytotoxicity, peripheral blood mononuclear cells; format: cell-based; conditions: human, peripheral blood mononuclear cells (PBMC); PBMC, nontumoral control, MTT, 48 h, mean ± SD
Method: as §1, §2, §3, §4, §5

[6] = system: CRC cell lines SW48, SW620, and SW948; experiment: MTT cytotoxicity across CRC cell lines (pooled statements, selectivity between lines); format: cell-based; conditions: for Index of selectivity SW48 vs. SW620: IS = CC50 SW48 ÷ CC50 SW620; for Index of selectivity SW948 vs. SW48: IS = CC50 SW948 ÷ CC50 SW48; for Index of selectivity SW948 vs. SW620: IS = CC50 SW948 ÷ CC50 SW620
Method: as §1, §2, §3, §4
The %mortality data for each compound concentration was recorded, and the median cytotoxic concentration (CC50), corresponding to the concentration at which 50% of cell death occurs, was calculated using GraphPad Prism 8 software (GraphPad, Software, Inc., La Jolla, CA, USA). […]

| Compound | CC50 ([1]; Homo sapiens, SW948, 48 h) [µM] | Index of selectivity MCRT / SW948 [1] | Index of selectivity PBMC / SW948 [1] | CC50 ([2]; Homo sapiens, SW48, 48 h) [µM] | Index of selectivity MCRT / SW48 [2] | Index of selectivity PBMC / SW48 [2] | CC50 ([3]; 48 h) [µM] | Index of selectivity MCRT / SW620 [3] | Index of selectivity PBMC / SW620 [3] | CC50 at 48 h [4] [µM] | CC50 at 48 h [5] [µM] | Index of selectivity SW48 vs. SW620 [6] | Index of selectivity SW948 vs. SW48 [6] | Index of selectivity SW948 vs. SW620 [6] | also measured |
| --- | --- | --- | --- | --- | --- | --- | --- | --- | --- | --- | --- | --- | --- | --- | --- |
| C[N+](C)(C)CCCC=C(c1cccc(F)c1)c1cccc(F)c1 [Compound 1] | 211 ± 7.4 | 1.0 | 0.1 | 105 ± 12 | 2.0 | 0.3 | 63.7 ± 15.3 | 3.3 | 0.5 | 212 ± 4 | 29.8 ± 2.4 | 1.7 | 2.0 | 3.3 |  |
| C[N+](C)(CI)CCCC=C(c1ccc(F)cc1)c1ccc(F)cc1 [Compound 2] | 77.9 ± 9.1 | 2.6 | 0.5 | 75.7 ± 14.2 | 2.7 | 0.47 |  | 7.3 | 1.3 | 205 ± 14.5 | 35.6 ± 6.6 | 2.7 | 1.0 | 2.8 | CC50 ([3]; SW-620, read-out: LC50 (Figure 2c)): 28.1 µM |
| C[N+](C)(CCl)CCCCC=C(c1ccc(F)cc1)c1ccc(F)cc1 [Compound 3] | 52.9 ± 13.8 | 2.5 | 0.8 | 125 ± 5.1 | 1.0 | 0.32 | 64.5 ± 8.1 | 2.0 | 0.6 | 130 ± 20 | 39.7 ± 7.7 | 1.9 | 0.4 | 0.8 |  |
| C[N+](C)(CI)CCCCC=C(c1ccc(F)cc1)c1ccc(F)cc1 [Compound 4] | 72.8 ± 12.8 | 1.5 | 0.6 | 100 ± 3 | 1.1 | 0.45 | 52.5 ± 5.6 | 2.0 | 0.9 | 107 ± 4.5 | 45.1 ± 7.3 | 1.9 | 0.7 | 1.4 |  |
| O=c1[nH]cc(F)c(=O)[nH]1 [Compound 5-FU, 5-fluorouracil, reference compound] | 30.3 ± 5.2 | 31.2 | 1.3 | 30.3 | 33.9 | 1.4 | 30.3 ± 6 | 31.2 | 1.3 | 945 ± 43.7 | 38.7 ± 7 | 0.9 | 1.1 | 1.0 | cytotoxicity level (high/moderate/low) [1]: High; cytotoxicity level (high/moderate/low) [2]: High; cytotoxicity level (high/moderate/low) [3]: High; CC50 ([3]; SW-620): 27.9 µM |
| C[N+](C)(CCl)CCCC=C(c1cccc(C(F)(F)F)c1)c1cccc(C(F)(F)F)c1 [Compound 5] | 24.5 | 2.8 | 0.8 | 43.5 | 2.3 | 0.66 | 24.5 ± 2.3 | 4.9 | 1.4 | 121 ± 5.4 | 34.8 ± 6 | 2.1 | 0.8 | 1.8 | CC50 [1]: 43.5 ± 4 µM; CC50 [2]: 52 ± 9.2 µM; CC50 ([3]; SW-620): 52 µM |
| C[N+](C)(CI)CCCC=C(c1cccc(C(F)(F)F)c1)c1cccc(C(F)(F)F)c1 [Compound 6] | 45.6 ± 3.6 | 2.8 | 1.0 | 55.5 ± 6.4 | 2.3 | 0.80 | 38.8 ± 2.1 | 3.3 | 1.2 | 129 ± 11.3 | 44.8 ± 6.4 | 1.4 |  |  |  |
| C[N+](C)(C)CCCC=C(c1cccc(C(F)(F)F)c1)c1cccc(C(F)(F)F)c1 [Compound 7] | 20 ± 0.8 | 6.2 | 2.3 | 81.4 ± 9.4 | 1.5 | 0.57 | 31.1 ± 0.2 | 4.0 | 1.5 | 123 ± 9.2 | 46.3 ± 7.5 | 2.6 | 0.2 |  |  |
| C[N+](C)(CCl)CCCC=C(c1ccc(C(F)(F)F)cc1)c1ccc(C(F)(F)F)cc1 [Compound 8] | 20.4 ± 6.2 | 5.0 | 2.1 | 50.8 ± 4 | 2.0 | 0.8 | 19.2 ± 3.5 | 5.3 | 2.2 | 102 ± 5 | 42.3 ± 9.3 | 2.6 | 0.4 | 1.1 |  |
| C[N+](C)(CI)CCCC=C(c1ccc(C(F)(F)F)cc1)c1ccc(C(F)(F)F)cc1 [Compound 9] | 20 ± 4.7 | 10.3 | 1.5 | 40.2 ± 6 | 5.1 | 0.8 | 32.2 ± 1 | 6.4 | 1.0 | 206 ± 19.4 | 30.6 ± 2.1 | 1.2 | 0.5 | 0.6 |  |
